Data as given in patent US11679107B2 (Eisai R&D Management Co., Ltd., priority 2018, dated 2023).
Where two headings read alike, the source gives them in different places.

What was measured:
[1] = test system: Panc 05.04 cells (SF3b K700E mutant); assay: Cell proliferation and viability, CellTiter-Glo, 72 hours; assay type: cell-based; settings: for GI50: geometric mean
Summary of the method: (§1)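 Cells grown in RPMI-1640 with 10% FBS (Panc line with added insulin and FBS to 15%) were exposed to an 11-point half-log dilution series, typically 10 μM-100 pM, at 0.1% final DMSO. After incubation at 37° C, 5% CO2, ATP content was measured by luminescence and normalized to a time-zero plate and DMSO wells.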

[2] = test system: NCI-H1568 cells (high MCL1); assay: as above; assay type: cell-based; settings: for GI50: geometric mean
Summary of the method: as §1

[3] = test system: Ad2 variant pre-mRNAs spliced in HeLa S3 nuclear extracts; assay: In vitro splicing assay (IVS), RT-qPCR of spliced product; assay type: biochemical; settings: for IC50: geometric mean; for Ratio Ad2.1/2.2: ratio of IVS IC50 Ad2.1 to Ad2.2
Summary of the method: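 Ad2 variant pre-mRNA (2 ng) with FTZΔi control RNA in HeLa S3 nuclear extract (8 μg) was pre-incubated with compound or DMSO for 15 min at 30 °C. Splicing ran 90 min at 30 °C after adding 0.5 mM ATP, creatine phosphate and MgCl2. Spliced product was quantified by TaqMan RT-qPCR, normalized to DMSO, and curve-fitted.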

SF3b complexes = biological target: T1, SF3b complexes (Homo sapiens, UniProt O75533+Q7RTV0); assay: Scintillation proximity assay (SPA) with [3H]-labelled pladienolide probe; assay type: binding; settings: SF3B1 (WT); geometric mean; read-out: SPA-ATS GMean IC50 (nM) SF3B1 (WT)
T1 construct: endogenous in cells; host or cells: Nuclear extracts; A HeLa S3 extract preparation is described for the in vitro splicing assay
Summary of the method: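 SF3b complexes captured from nuclear extracts on anti-SF3B1 antibody SPA beads; test compounds pre-incubated 30 min before 2.5 nM [3H]-pladienolide probe added, then 30 min incubation. Bound probe read by scintillation; values from non-linear regression of concentration–response curves.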

[4] = PANC0504.1 cells, 72 h, −100% cidal, 0% static, 100% maximal growth
[5] = Panc 05.04, read-out: CTGlo-ATS GMean GI50 (nM) 72 h PANC0504.1, PANC0504.1 cells, 72 h
[6] = NCI-H1568, read-out: CTGlo-ATS GMean GI50 (nM) 72 h NCIH1568.1, NCIH1568.1 cells, 72 h
[7] = NCIH1568.1 cells, 72 h, −100% cidal, 0% static, 100% maximal growth
[8] = Ad2.1 pre-mRNA substrate, read-out: qPCR-IVS-ATS GMean IC50 (nM) Ad2.1
[9] = Ad2.2 pre-mRNA substrate, read-out: qPCR-IVS-ATS GMean IC50 (nM) Ad2.2
[10] = 72 h, PANC0504.1, -100% = cidal, 0% = static, 100% = uninhibited growth
[11] = Panc 05.04, read-out: CTGlo-ATS GMean GI50 (nM) 72 h PANC0504.1, 72 h, PANC0504.1
[12] = 72 h, NCIH1568.1, -100% = cidal, 0% = static, 100% = uninhibited growth
[13] = NCI-H1568, read-out: CTGlo-ATS GMean GI50 (nM) 72 h NCIH1568.1, 72 h, NCIH1568.1

SMILES	CTGlo-ATS Mean MinResponse % 72 h PANC0504.1 [1, 4] [%]	GI50 [1, 5] [nM]	GI50 [2, 6] [nM]	CTGlo-ATS Mean MinResponse % 72 h NCIH1568.1 [2, 7] [%]	IC50 [3, 8] [nM]	IC50 [3, 9] [nM]	IC50 (SF3b complexes) [nM]	CTGlo-ATS Mean MinResponse % 72 h PANC0504.1 [1, 10] [%]	GI50 [1, 11] [nM]	CTGlo-ATS Mean MinResponse % 72 h NCIH1568.1 [2, 12] [%]	GI50 [2, 13] [nM]	Ratio Ad2.1/2.2 [3]	GI50 ([1]; Panc 05.04, 72 h, read-out: CTGlo-ATS GMean GI50 (nM) 72 h PANC0504.1, PANC0504.1 cells, 72 h) [nM]	GI50 ([2]; NCI-H1568, 72 h, read-out: CTGlo-ATS GMean GI50 (nM) 72 h NCIH1568.1, NCIH1568.1 cells, 72 h) [nM]
C/C(=C\c1cc(F)cc(N2CCN(S(=O)(=O)CCN3CCOCC3)CC2)c1)[C@H]1OC(=O)C[C@H](O)CC[C@H](C)[C@@H](OC(=O)N2CCN(C)CC2)/C=C/[C@@H]1C [Compound 73]	−79.201	6.91	5.85	−76.720	13.1	13.6	2.42							
C/C(=C\c1cc(F)cc(N2CCOCC2)c1)[C@H]1OC(=O)C[C@H](O)CC[C@H](C)[C@@H](OC(=O)N2CCN(C)C(C)(C)C2)/C=C/[C@@H]1C [Compound 246, [(2S,3S,4E,6R,7S,10R)-2-[(E)-1-(3-fluoro-5-morpholin-4-ylphenyl)prop-1-en-2-yl]-10-hydroxy-3,7-dimethyl-12-oxo-1-oxacyclododec-4-en-6-yl] 3,3,4-trimethylpiperazine-1-carboxylate]					279	36.1	5.8	−95.467	16.5	−68.331	12.1	7.730		
C/C(=C\c1cc(F)cc(N2CC(F)C2)c1)[C@H]1OC(=O)C[C@H](O)CC[C@H](C)[C@@H](OC(=O)N2CCN(C)CC2)/C=C/[C@@H]1C [Compound 38]	−88.672	14.4	19.6	−54.093	1020	25.2	3.1							
C/C(=C\c1ccc2cnn(C)c2c1)[C@H]1OC(=O)C[C@H](O)CC[C@H](C)[C@@H](OC(=O)N2CCN(C)CC2)/C=C/[C@@H]1C [Compound 55]	−85.478	17.2	21.2	−57.557	19900	45.3	2.37							
C/C(=C\c1ccc(C)c(S(=O)(=O)N2CCCC2)c1)[C@H]1OC(=O)C[C@H](O)CC[C@H](C)[C@@H](OC(=O)N2CCN(C)CC2)/C=C/[C@@H]1C [Compound 203, [(2S,3S,4E,6R,7S,10R)-10-hydroxy-3,7-dimethyl-2-[(E)-1-(4-methyl-3-pyrrolidin-1-ylsulfonylphenyl)prop-1-en-2-yl]-12-oxo-1-oxacyclododec-4-en-6-yl] 4-methylpiperazine-1-carboxylate]					14400	69.7	10.1	−94.627	45	−36.664	47.3	207.149		
C/C(=C\c1cccc(S(=O)(=O)N2CCCCC2)c1)[C@H]1OC(=O)C[C@H](O)CC[C@H](C)[C@@H](OC(=O)N2CCN(C)CC2)/C=C/[C@@H]1C [Compound 213, [(2S,3S,4E,6R,7S,10R)-10-hydroxy-3,7-dimethyl-12-oxo-2-[(E)-1-(3-piperidin-1-ylsulfonylphenyl)prop-1-en-2-yl]-1-oxacyclododec-4-en-6-yl] 4-methylpiperazine-1-carboxylate]					9.84	7.96	3.23	−85.603	3.2	−64.116	6.03	1.236		
C/C(=C\c1cc(F)cc(N2CCOCC2)c1)[C@H]1OC(=O)C[C@H](O)CC[C@H](C)[C@@H](OC(=O)N2CCN(C)CC2)/C=C/[C@@H]1C [Compound 3]	−87.809			−78.460	18.6	10.3	1.74						2.96	2.42
C/C(=C\c1cc(F)cc(N2CCOCC2)c1)[C@H]1OC(=O)C[C@H](O)CC[C@H](C)[C@@H](OC(=O)N2CCN(C(C)(C)C)CC2)/C=C/[C@@H]1C [Compound 25]	−88.378	20.5	20.6	−49.158	430	46.4	4.94							
